Where a name gives a salt, the structure may show the parent alone.
How the values were obtained:
Details in all cases: exposure time: 72 h
E34 [1] = patient-derived glioblastoma stem cells of proneural subtype; test: surviving fraction (nuclei count normalised to DMSO); higher = more cells surviving (less toxic)
E21 [2] = patient-derived glioblastoma stem cells of mesenchymal subtype; test: as above
E31 [3] = patient-derived glioblastoma stem cells of proneural subtype; test: as above
E57 [4] = patient-derived glioblastoma stem cells of mesenchymal subtype; test: as above
FT3469 [5] = normal neural stem cell line; test: as above
E13 [6] = patient-derived glioblastoma stem cells of classical subtype; test: as above
E28 [7] = patient-derived glioblastoma stem cells of classical subtype; test: as above
E34 [8] = test: phenotypic distance (Euclidean, principal components) from DMSO controls (arbitrary units); higher = stronger morphological change
E21 [9] = test: as above
E31 [10] = test: as above
E57 [11] = test: as above
FT3469 [12] = test: as above
E13 [13] = test: as above
E28 [14] = test: as above
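Throughout, for phenotypic distance (Euclidean, principal components) from DMSO controls: cell Painting imaging in 384-well plates, CellProfiler features reduced to at least 20 principal components, Euclidean distance versus same-plate DMSO vehicle wells (0.1% v/v), median over six images per well.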
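Throughout, for surviving fraction (nuclei count normalised to DMSO): nuclei counted by high-content imaging of Hoechst-stained cells in laminin-coated 384-well plates, relative to 0.1% DMSO vehicle wells, with staurosporine as cell-death control.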

COC(=O)[C@@H]1[C@H]2C[C@H]3c4[nH]c5ccccc5c4CCN3C[C@@H]2CC[C@@H]1O [Yohimbine hydrochloride]
Details | phenotypic distance | surviving fraction
E13 [6], 4.11523 nM | – | 0.88
E13 [6], 12.34567901 nM | – | 0.94
E13 [6], 37.037 nM | – | 1.03
E13 [6], 111.1111111 nM | – | 0.984
E13 [6], 333.333 nM | – | 1.01
E13 [6], 1000 nM | – | 0.876
E13 [6], 3000 nM | – | 0.986
E13 [13], 4.11523 nM | 0.924 | –
E13 [13], 12.34567901 nM | 0.56 | –
E13 [13], 37.037 nM | 0.624 | –
E13 [13], 111.1111111 nM | 0.517 | –
E13 [13], 333.333 nM | 0.539 | –
E13 [13], 1000 nM | 0.622 | –
E13 [13], 3000 nM | 0.73 | –
E21 [2], 4.11523 nM | – | 0.896
E21 [2], 12.34567901 nM | – | 1.01
E21 [2], 37.037 nM | – | 0.994
E21 [2], 111.1111111 nM | – | 1.06
E21 [2], 333.333 nM | – | 1.03
E21 [2], 1000 nM | – | 1.01
E21 [2], 3000 nM | – | 1.02
E21 [9], 4.11523 nM | 0.527 | –
E21 [9], 12.34567901 nM | 0.576 | –
E21 [9], 37.037 nM | 0.624 | –
E21 [9], 111.1111111 nM | 0.545 | –
E21 [9], 333.333 nM | 0.676 | –
E21 [9], 1000 nM | 0.456 | –
E21 [9], 3000 nM | 0.417 | –
E28 [7], 4.11523 nM | – | 1.01
E28 [7], 12.34567901 nM | – | 0.965
E28 [7], 37.037 nM | – | 1.04
E28 [7], 111.1111111 nM | – | 0.945
E28 [7], 333.333 nM | – | 1.15
E28 [7], 1000 nM | – | 0.948
E28 [7], 3000 nM | – | 0.948
E28 [14], 4.11523 nM | 0.456 | –
E28 [14], 12.34567901 nM | 0.689 | –
E28 [14], 37.037 nM | 1.18 | –
E28 [14], 111.1111111 nM | 0.639 | –
E28 [14], 333.333 nM | 0.696 | –
E28 [14], 1000 nM | 0.645 | –
E28 [14], 3000 nM | 0.333 | –
E31 [3], 4.11523 nM | – | 0.959
E31 [3], 12.34567901 nM | – | 0.999
E31 [3], 37.037 nM | – | 1.18
E31 [3], 111.1111111 nM | – | 0.859
E31 [3], 333.333 nM | – | 0.951
E31 [3], 1000 nM | – | 1.07
E31 [3], 3000 nM | – | 0.928
E31 [10], 4.11523 nM | 0.598 | –
E31 [10], 12.34567901 nM | 0.58 | –
E31 [10], 37.037 nM | 0.688 | –
E31 [10], 111.1111111 nM | 0.658 | –
E31 [10], 333.333 nM | 0.454 | –
E31 [10], 1000 nM | 0.521 | –
E31 [10], 3000 nM | 0.828 | –
E34 [1], 4.11523 nM | – | 0.932
E34 [1], 12.34567901 nM | – | 0.932
E34 [1], 37.037 nM | – | 0.912
E34 [1], 111.1111111 nM | – | 1.05
E34 [1], 333.333 nM | – | 0.932
E34 [1], 1000 nM | – | 0.959
E34 [1], 3000 nM | – | 0.892
E34 [8], 4.11523 nM | 0.815 | –
E34 [8], 12.34567901 nM | 0.668 | –
E34 [8], 37.037 nM | 0.596 | –
E34 [8], 111.1111111 nM | 0.623 | –
E34 [8], 333.333 nM | 0.866 | –
E34 [8], 1000 nM | 0.744 | –
E34 [8], 3000 nM | 0.647 | –
E57 [4], 4.11523 nM | – | 1.03
E57 [4], 12.34567901 nM | – | 1.07
E57 [4], 37.037 nM | – | 0.994
E57 [4], 111.1111111 nM | – | 0.981
E57 [4], 333.333 nM | – | 0.979
E57 [4], 1000 nM | – | 0.979
E57 [4], 3000 nM | – | 1.01
E57 [11], 4.11523 nM | 0.343 | –
E57 [11], 12.34567901 nM | 0.457 | –
E57 [11], 37.037 nM | 0.558 | –
E57 [11], 111.1111111 nM | 0.582 | –
E57 [11], 333.333 nM | 0.386 | –
E57 [11], 1000 nM | 0.804 | –
E57 [11], 3000 nM | 0.576 | –
FT3469 [5], 4.11523 nM | – | 0.957
FT3469 [5], 12.34567901 nM | – | 1.05
FT3469 [5], 37.037 nM | – | 0.936
FT3469 [5], 111.1111111 nM | – | 0.853
FT3469 [5], 333.333 nM | – | 1.04
FT3469 [5], 1000 nM | – | 0.975
FT3469 [5], 3000 nM | – | 1.01
FT3469 [12], 4.11523 nM | 0.568 | –
FT3469 [12], 12.34567901 nM | 0.613 | –
FT3469 [12], 37.037 nM | 0.433 | –
FT3469 [12], 111.1111111 nM | 1.24 | –
FT3469 [12], 333.333 nM | 0.516 | –
FT3469 [12], 1000 nM | 0.514 | –
FT3469 [12], 3000 nM | 0.55 | –

Nc1ccn([C@H]2CC[C@@H](CO)O2)c(=O)n1 [Zalcitabine]
Details | phenotypic distance | surviving fraction
E13 [6], 4.1 nM | – | 0.88
E13 [6], 12.3 nM | – | 1.02
E13 [6], 37 nM | – | 1.01
E13 [6], 111.1 nM | – | 0.953
E13 [6], 333.3 nM | – | 0.94
E13 [6], 1000 nM | – | 1.01
E13 [6], 3000 nM | – | 0.913
E13 [13], 4.1 nM | 0.723 | –
E13 [13], 12.3 nM | 0.719 | –
E13 [13], 37 nM | 0.578 | –
E13 [13], 111.1 nM | 0.722 | –
E13 [13], 333.3 nM | 0.483 | –
E13 [13], 1000 nM | 0.498 | –
E13 [13], 3000 nM | 0.729 | –
E21 [2], 4.1 nM | – | 0.917
E21 [2], 12.3 nM | – | 0.894
E21 [2], 37 nM | – | 1.08
E21 [2], 111.1 nM | – | 0.99
E21 [2], 333.3 nM | – | 0.9
E21 [2], 1000 nM | – | 0.987
E21 [2], 3000 nM | – | 0.979
E21 [9], 4.1 nM | 0.578 | –
E21 [9], 12.3 nM | 0.976 | –
E21 [9], 37 nM | 0.36 | –
E21 [9], 111.1 nM | 0.783 | –
E21 [9], 333.3 nM | 0.577 | –
E21 [9], 1000 nM | 0.331 | –
E21 [9], 3000 nM | 0.684 | –
E28 [7], 4.1 nM | – | 1.04
E28 [7], 12.3 nM | – | 1.04
E28 [7], 37 nM | – | 0.97
E28 [7], 111.1 nM | – | 1.13
E28 [7], 333.3 nM | – | 1.01
E28 [7], 1000 nM | – | 1.12
E28 [7], 3000 nM | – | 0.87
E28 [14], 4.1 nM | 0.369 | –
E28 [14], 12.3 nM | 0.351 | –
E28 [14], 37 nM | 0.756 | –
E28 [14], 111.1 nM | 0.552 | –
E28 [14], 333.3 nM | 0.598 | –
E28 [14], 1000 nM | 0.381 | –
E28 [14], 3000 nM | 0.783 | –
E31 [3], 4.1 nM | – | 0.933
E31 [3], 12.3 nM | – | 1.11
E31 [3], 37 nM | – | 0.978
E31 [3], 111.1 nM | – | 1.13
E31 [3], 333.3 nM | – | 0.919
E31 [3], 1000 nM | – | 0.885
E31 [3], 3000 nM | – | 0.972
E31 [10], 4.1 nM | 0.62 | –
E31 [10], 12.3 nM | 0.852 | –
E31 [10], 37 nM | 0.398 | –
E31 [10], 111.1 nM | 0.47 | –
E31 [10], 333.3 nM | 0.46 | –
E31 [10], 1000 nM | 0.667 | –
E31 [10], 3000 nM | 0.528 | –
E34 [1], 4.1 nM | – | 0.869
E34 [1], 12.3 nM | – | 0.954
E34 [1], 37 nM | – | 1.05
E34 [1], 111.1 nM | – | 0.887
E34 [1], 333.3 nM | – | 0.896
E34 [1], 1000 nM | – | 0.977
E34 [1], 3000 nM | – | 0.802
E34 [8], 4.1 nM | 0.915 | –
E34 [8], 12.3 nM | 0.593 | –
E34 [8], 37 nM | 0.379 | –
E34 [8], 111.1 nM | 0.902 | –
E34 [8], 333.3 nM | 1.02 | –
E34 [8], 1000 nM | 0.999 | –
E34 [8], 3000 nM | 0.863 | –
E57 [4], 4.1 nM | – | 1.06
E57 [4], 12.3 nM | – | 0.945
E57 [4], 37 nM | – | 0.991
E57 [4], 111.1 nM | – | 1.09
E57 [4], 333.3 nM | – | 0.982
E57 [4], 1000 nM | – | 1.02
E57 [4], 3000 nM | – | 1.05
E57 [11], 4.1 nM | 1.83 | –
E57 [11], 12.3 nM | 0.448 | –
E57 [11], 37 nM | 0.547 | –
E57 [11], 111.1 nM | 0.703 | –
E57 [11], 333.3 nM | 0.624 | –
E57 [11], 1000 nM | 0.55 | –
E57 [11], 3000 nM | 0.703 | –
FT3469 [5], 4.1 nM | – | 1.11
FT3469 [5], 12.3 nM | – | 1.03
FT3469 [5], 37 nM | – | 0.953
FT3469 [5], 111.1 nM | – | 1.1
FT3469 [5], 333.3 nM | – | 1.02
FT3469 [5], 1000 nM | – | 1.11
FT3469 [5], 3000 nM | – | 0.989
FT3469 [12], 4.1 nM | 3.61 | –
FT3469 [12], 12.3 nM | 0.392 | –
FT3469 [12], 37 nM | 0.547 | –
FT3469 [12], 111.1 nM | 0.849 | –
FT3469 [12], 333.3 nM | 0.603 | –
FT3469 [12], 1000 nM | 0.632 | –
FT3469 [12], 3000 nM | 0.569 | –

Reference: the supplement of paper PMC13207355
